Measurements reported in ChEMBL document CHEMBL1138148, “Conformational constraint in oxazolidinone antibacterials. Part 2: Synthesis and structure-activity studies of oxa-, aza-, and thiabicyclo[3.1.0]hexylphenyl oxazolidinones” (2006).
In brackets after ≈: the same amount, converted by molar mass.

Key:
Format in all cases: functional
Haemophilus influenzae = assay: Antibacterial activity against Haemophilus influenzae HI3542; conditions: HI-3542
Enterococcus faecalis = assay: Antibacterial activity against Enterococcus faecalis MGH-2 EF1-1
Staphylococcus aureus [1] = assay: Antibacterial activity against Staphylococcus aureus UC-76 SA-1
Moraxella catarrhalis = assay: Antibacterial activity against Moraxella catarrhalis BC-3531
Streptococcus pneumoniae = assay: Antibacterial activity against Streptococcus pneumoniae SVI SP-3
Staphylococcus aureus [2] = assay: In vivo efficacy in mouse infected with Staphylococcus aureus UC 9213 administered po; conditions: UC 9213, po

Row | MIC (Haemophilus influenzae) [µg/mL] | MIC (Enterococcus faecalis) [µg/mL] | MIC (Staphylococcus aureus [1]) [µg/mL] | MIC (Moraxella catarrhalis) [µg/mL] | MIC (Streptococcus pneumoniae) [µg/mL] | Structure (SMILES) | ED50 (Staphylococcus aureus [2]) [mg/kg]
1 | 8 (≈ 20 µM) | 2 (≈ 4.99 µM) | 2 (≈ 4.99 µM) | 4 (≈ 9.99 µM) | 1 (≈ 2.5 µM) | CC(=O)NC[C@H]1CN(c2cc(F)c([C@H]3[C@@H]4CS(=O)(=O)C[C@@H]43)c(F)c2)C(=O)O1 | 3.1
2 | 16 (≈ 37 µM) | 8 (≈ 18.5 µM) | 8 (≈ 18.5 µM) | 8 (≈ 18.5 µM) | 2 (≈ 4.63 µM) | CC(F)(F)C(=O)NC[C@H]1CN(c2ccc([C@H]3[C@@H]4CS(=O)(=O)C[C@@H]43)c(F)c2)C(=O)O1 | 
3 | 4 (≈ 9.79 µM) | 4 (≈ 9.79 µM) | 4 (≈ 9.79 µM) | 4 (≈ 9.79 µM) | 2 (≈ 4.9 µM) | O=C(NC[C@H]1CN(c2ccc([C@H]3[C@@H]4CS(=O)(=O)C[C@@H]43)c(F)c2)C(=O)O1)C1CC1 | 
4 | 8 (≈ 20.9 µM) | 4 (≈ 10.5 µM) | 4 (≈ 10.5 µM) | 8 (≈ 20.9 µM) | 2 (≈ 5.23 µM) | CC(=O)NC[C@H]1CN(c2ccc([C@H]3[C@@H]4CS(=O)(=O)C[C@@H]43)c(F)c2)C(=O)O1 | 4.2
5 | 8 (≈ 20.1 µM) | 8 (≈ 20.1 µM) | 8 (≈ 20.1 µM) | 8 (≈ 20.1 µM) | 4 (≈ 10 µM) | O=C(CO)NC[C@H]1CN(c2ccc([C@H]3[C@@H]4CS(=O)(=O)C[C@@H]43)c(F)c2)C(=O)O1 | 
6 | 8 (≈ 20.2 µM) | 2 (≈ 5.04 µM) | 4 (≈ 10.1 µM) | 8 (≈ 20.2 µM) | 1 (≈ 2.52 µM) | CCC(=O)NC[C@H]1CN(c2ccc([C@H]3[C@@H]4CS(=O)(=O)C[C@@H]43)c(F)c2)C(=O)O1 | 
7 | 16 (≈ 35.5 µM) | 2 (≈ 4.44 µM) | 4 (≈ 8.88 µM) | 8 (≈ 17.8 µM) | 1 (≈ 2.22 µM) | CC(F)(F)C(=O)NC[C@H]1CN(c2cc(F)c([C@H]3[C@@H]4CS(=O)(=O)C[C@@H]43)c(F)c2)C(=O)O1 | 
8 | 16 (≈ 43.9 µM) | 8 (≈ 22 µM) | 4 (≈ 11 µM) | 8 (≈ 22 µM) | 4 (≈ 11 µM) | CC(=O)NC[C@H]1CN(c2ccc([C@H]3[C@@H]4CS(=O)(=O)C[C@@H]43)cc2)C(=O)O1 | 7.2
9 | 32 (≈ 75.7 µM) | 8 (≈ 18.9 µM) | 8 (≈ 18.9 µM) | 32 (≈ 75.7 µM) | 2 (≈ 4.73 µM) | O=C(NC[C@H]1CN(c2ccc([C@H]3[C@@H]4CS(=O)(=O)C[C@@H]43)c(F)c2)C(=O)O1)C1CCC1 | 
10 | 8 (≈ 19.6 µM) | 8 (≈ 19.6 µM) | 8 (≈ 19.6 µM) | 8 (≈ 19.6 µM) | 4 (≈ 9.82 µM) | N#CCC(=O)NC[C@H]1CN(c2ccc([C@H]3[C@@H]4CS(=O)(=O)C[C@@H]43)c(F)c2)C(=O)O1 | 
11 | 4 (≈ 9.65 µM) | 2 (≈ 4.83 µM) | 2 (≈ 4.83 µM) | 4 (≈ 9.65 µM) | 1 (≈ 2.41 µM) | CCC(=O)NC[C@H]1CN(c2cc(F)c([C@H]3[C@@H]4CS(=O)(=O)C[C@@H]43)c(F)c2)C(=O)O1 | 
12 | 8 (≈ 23.9 µM) | 4 (≈ 12 µM) | 4 (≈ 12 µM) | 4 (≈ 12 µM) | 2 (≈ 5.98 µM) | CC(=O)NC[C@H]1CN(c2ccc([C@H]3[C@@H]4COC[C@@H]43)c(F)c2)C(=O)O1 | 

Further lines, the compound ahead of its results:

Row | Structure (SMILES) | MIC (Haemophilus influenzae) [µg/mL] | MIC (Enterococcus faecalis) [µg/mL] | MIC (Staphylococcus aureus [1]) [µg/mL] | MIC (Moraxella catarrhalis) [µg/mL] | MIC (Streptococcus pneumoniae) [µg/mL] | ED50 (Staphylococcus aureus [2]) [mg/kg]
13 | CC(=O)NC[C@H]1CN(c2ccc([C@H]3[C@@H]4CN(C=O)C[C@@H]43)c(F)c2)C(=O)O1 | 8 (≈ 22.1 µM) | 2 (≈ 5.53 µM) | 2 (≈ 5.53 µM) | 8 (≈ 22.1 µM) | 1 (≈ 2.77 µM) | 
14 | N#CCC(=O)NC[C@H]1CN(c2cc(F)c([C@H]3[C@@H]4CS(=O)(=O)C[C@@H]43)c(F)c2)C(=O)O1 | 4 (≈ 9.4 µM) | 4 (≈ 9.4 µM) | 4 (≈ 9.4 µM) | 8 (≈ 18.8 µM) | 2 (≈ 4.7 µM) | 
15 | O=C(CO)NC[C@H]1CN(c2cc(F)c([C@H]3[C@@H]4CS(=O)(=O)C[C@@H]43)c(F)c2)C(=O)O1 | 8 (≈ 19.2 µM) | 4 (≈ 9.61 µM) | 4 (≈ 9.61 µM) | 8 (≈ 19.2 µM) | 2 (≈ 4.8 µM) | 
16 | CC(=O)NC[C@H]1CN(c2ccc([C@H]3[C@@H]4CN(C#N)C[C@@H]43)c(F)c2)C(=O)O1 | 8 (≈ 22.3 µM) | 1 (≈ 2.79 µM) | 2 (≈ 5.58 µM) | 4 (≈ 11.2 µM) | 1 (≈ 2.79 µM) | 
17 | CC(=O)NC[C@H]1CN(c2ccc([C@H]3[C@@H]4CN(c5nn[nH]n5)C[C@@H]43)c(F)c2)C(=O)O1 | 64 (≈ 159 µM) | 32 (≈ 79.7 µM) | 64 (≈ 159 µM) | 64 (≈ 159 µM) | 64 (≈ 159 µM) | 
18 | CC(=O)NC[C@H]1CN(c2ccc([C@H]3[C@@H]4CN(C(N)=O)C[C@@H]43)c(F)c2)C(=O)O1 | 8 (≈ 21.3 µM) | 2 (≈ 5.31 µM) | 2 (≈ 5.31 µM) | 8 (≈ 21.3 µM) | 2 (≈ 5.31 µM) | 15.3
19 | CC(=O)NC[C@H]1CN(c2ccc([C@H]3[C@@H]4CN(C(=O)CN)C[C@@H]43)c(F)c2)C(=O)O1 | 16 (≈ 41 µM) | 4 (≈ 10.2 µM) | 16 (≈ 41 µM) | 16 (≈ 41 µM) | 1 (≈ 2.56 µM) | 
20 | CC(=O)NC[C@H]1CN(c2ccc([C@H]3[C@@H]4CN(C(=O)CC#N)C[C@@H]43)c(F)c2)C(=O)O1 | 8 (≈ 20 µM) | 1 (≈ 2.5 µM) | 1 (≈ 2.5 µM) | 4 (≈ 9.99 µM) | 1 (≈ 2.5 µM) | 
21 | CC(=O)NC[C@H]1CN(c2ccc([C@H]3[C@@H]4CN(C(=N)N)C[C@@H]43)c(F)c2)C(=O)O1 | 64 (≈ 170 µM) | 64 (≈ 170 µM) | 64 (≈ 170 µM) | 16 (≈ 42.6 µM) | 4 (≈ 10.7 µM) | 
22 | CC(=O)NC[C@H]1CN(c2ccc([C@H]3[C@@H]4CN(C(=O)C(C)(C)O)C[C@@H]43)c(F)c2)C(=O)O1 | 32 (≈ 76.3 µM) | 4 (≈ 9.54 µM) | 8 (≈ 19.1 µM) | 16 (≈ 38.1 µM) | 2 (≈ 4.77 µM) | 
23 | COC(=O)N1C[C@@H]2[C@H](C1)[C@H]2c1ccc(N2C[C@H](CNC(C)=O)OC2=O)cc1F | 32 (≈ 81.8 µM) | 4 (≈ 10.2 µM) | 4 (≈ 10.2 µM) | 8 (≈ 20.4 µM) | 2 (≈ 5.11 µM) | 
24 | CC(=O)NC[C@H]1CN(c2ccc([C@H]3[C@@H]4CN(C(=O)CO)C[C@@H]43)cc2)C(=O)O1 | 8 (≈ 21.4 µM) | 4 (≈ 10.7 µM) | 4 (≈ 10.7 µM) | 4 (≈ 10.7 µM) | 4 (≈ 10.7 µM) | 
25 | CC(=O)NC[C@H]1CN(c2ccc([C@H]3[C@@H]4CN(CCO)C[C@@H]43)c(F)c2)C(=O)O1 | 8 (≈ 21.2 µM) | 8 (≈ 21.2 µM) | 4 (≈ 10.6 µM) | 8 (≈ 21.2 µM) | 0.5 (≈ 1.32 µM) | 
26 | C/N=C(\NC#N)N1C[C@@H]2[C@H](C1)[C@H]2c1ccc(N2C[C@H](CNC(C)=O)OC2=O)cc1F | 16 (≈ 38.6 µM) | 4 (≈ 9.65 µM) | 4 (≈ 9.65 µM) | 32 (≈ 77.2 µM) | 2 (≈ 4.83 µM) | 
27 | CC(=O)NC[C@H]1CN(c2cc(F)c([C@H]3[C@@H]4CN(C(=O)CO)C[C@@H]43)c(F)c2)C(=O)O1 | 16 (≈ 39.1 µM) | 4 (≈ 9.77 µM) | 4 (≈ 9.77 µM) | 8 (≈ 19.5 µM) | 2 (≈ 4.89 µM) | 
28 | CC(=O)NC[C@H]1CN(c2ccc([C@H]3[C@@H]4CN(C(=N)NC#N)C[C@@H]43)c(F)c2)C(=O)O1 | 8 (≈ 20 µM) | 2 (≈ 4.99 µM) | 1 (≈ 2.5 µM) | 8 (≈ 20 µM) | 1 (≈ 2.5 µM) | 
29 | O=C(NC[C@H]1CN(c2cc(F)c([C@H]3[C@@H]4CS(=O)(=O)C[C@@H]43)c(F)c2)C(=O)O1)C1CC1 | 8 (≈ 18.8 µM) | 2 (≈ 4.69 µM) | 2 (≈ 4.69 µM) | 4 (≈ 9.38 µM) | 1 (≈ 2.34 µM) | 
30 | CC(=O)NC[C@H]1CN(c2ccc([C@H]3[C@@H]4COC[C@@H]43)cc2)C(=O)O1 | 32 (≈ 101 µM) | 16 (≈ 50.6 µM) | 8 (≈ 25.3 µM) | 8 (≈ 25.3 µM) | 8 (≈ 25.3 µM) | 
31 | CC(=O)NC[C@H]1CN(c2ccc([C@H]3[C@@H]4CN(CCC#N)C[C@@H]43)c(F)c2)C(=O)O1 | 16 (≈ 41.4 µM) | 2 (≈ 5.18 µM) | 2 (≈ 5.18 µM) | 8 (≈ 20.7 µM) | 1 (≈ 2.59 µM) | 
32 | CC(=O)NC[C@H]1CN(c2ccc([C@H]3[C@@H]4CNC[C@@H]43)c(F)c2)C(=O)O1 | 32 (≈ 96 µM) | 16 (≈ 48 µM) | 8 (≈ 24 µM) | 8 (≈ 24 µM) | 2 (≈ 6 µM) | 
33 | CC(=O)NC[C@H]1CN(c2ccc([C@H]3[C@@H]4CN(C(=O)C(F)F)C[C@@H]43)c(F)c2)C(=O)O1 | 16 (≈ 38.9 µM) | 2 (≈ 4.86 µM) | 4 (≈ 9.72 µM) | 8 (≈ 19.4 µM) | 1 (≈ 2.43 µM) | 
34 | CC(=O)NC[C@H]1CN(c2cc(F)c([C@H]3[C@@H]4COC[C@@H]43)c(F)c2)C(=O)O1 | 32 (≈ 90.8 µM) | 8 (≈ 22.7 µM) | 8 (≈ 22.7 µM) | 8 (≈ 22.7 µM) | 4 (≈ 11.4 µM) | 
35 | CC(=O)NC[C@H]1CN(c2ccc([C@H]3[C@@H]4CN(C(=O)CO)C[C@@H]43)c(F)c2)C(=O)O1 | 4 (≈ 10.2 µM) | 2 (≈ 5.11 µM) | 2 (≈ 5.11 µM) | 8 (≈ 20.4 µM) | 2 (≈ 5.11 µM) | 2.2
36 | CC(=O)NC[C@H]1CN(c2ccc([C@H]3[C@@H]4CN(CCF)C[C@@H]43)c(F)c2)C(=O)O1 | 16 (≈ 42.2 µM) | 4 (≈ 10.5 µM) | 4 (≈ 10.5 µM) | 8 (≈ 21.1 µM) | 1 (≈ 2.64 µM) | 
37 | CC(=O)NC[C@H]1CN(c2ccc([C@H]3[C@@H]4CN(c5nnn(C)n5)C[C@@H]43)c(F)c2)C(=O)O1 | 16 (≈ 38.5 µM) | 2 (≈ 4.81 µM) | 2 (≈ 4.81 µM) | 8 (≈ 19.3 µM) | 1 (≈ 2.41 µM) | 
38 | CC(=O)NCC(=O)N1C[C@@H]2[C@H](C1)[C@H]2c1ccc(N2C[C@H](CNC(C)=O)OC2=O)cc1F | 32 (≈ 74 µM) | 4 (≈ 9.25 µM) | 4 (≈ 9.25 µM) | 32 (≈ 74 µM) | 4 (≈ 9.25 µM) | 
39 | CC(=O)NC[C@H]1CN(c2ccc(N3CCOCC3)c(F)c2)C(=O)O1 [LINEZOLID] | 16 (≈ 47.4 µM) |  |  | 8 (≈ 23.7 µM) |  | 
